# Test results from PubChem BioAssay AID463204 (Broad Institute, 2010).
# Calls of active or inactive are those of the source.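 The calls were made as follows: active = AC50 no more than ten times the top concentration tested, that is within one log above it; inconclusive = flat curve fit with activity between 30% and 70%, or invalid poor fit; inactive = AC50 beyond ten times the top tested dose.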
# Test system: S. cerevisiae Mot1-301 ts growth rescue, BacTiter-Glo ATP luminescence
# Experiment: growth rescue of Mot1-301 ts yeast, confirmation, SUMOylation pathway inhibitor project, whole organism, S. cerevisiae, Mot1-301 ts mutant, luminescence, dose retest (AID 463204);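 also: growth at restrictive 38.5 degrees C of Mot1-301 OY566 strain; actives raise luminescence by restoring growth of the ts mutant at high temperature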
row,Structure (SMILES),AC50
1,Cc1cc(C)n(-c2ccc(C(=O)C(C#N)c3nc4ccccc4n3C)cc2)n1 (stereo not given),> 42 µM (inactive)
2,CN(Cc1ccc(C(C)(C)C)cc1)C(=O)c1ccc2c(=O)n3c(nc2c1)CCC3,> 42 µM (inactive)
3,CN(C)C(/C=C/Nc1cccc(Br)c1)=C(C#N)C#N,> 42 µM (inactive)
4,NC(=O)NC(=O)CSc1nc(C2CCCCC2)n(-c2ccccc2)n1,> 42 µM (inactive)
5,Cc1ccc(SC[C@H](C)CN2CC[C@H](C)CCC2=O)cc1,> 42 µM (inactive)
6,C=C(C)C(=O)OC1(C(F)(F)F)Oc2cc(C)ccc2NC1=O (stereo not given),4.67 µM
7,CC1=Nc2ccccc2/C1=C\c1nc(-c2ccccc2)oc1O,> 42 µM (inactive)
8,Cn1c(SCC(=O)Nc2ccc(N3CCOCC3)c(Cl)c2)nnc1-c1ccccc1,> 42 µM (inactive)
9,O=CNCCCc1nc2ccccc2n1CCc1ccccc1,> 42 µM (inactive)
10,O=S(=O)(Nc1ccc(N2CCOCC2)cc1)c1cccs1,> 42 µM (inactive)
11,CCC(C)NC(=O)CSc1nnc(-c2cc(-c3ccc(C)cc3)nc3ccccc23)n1N (stereo not given),> 42 µM (inactive)
12,CC1(C)CC(=O)C(C=Nc2ccc(O)c(N=CC3=C(O)CC(C)(C)CC3=O)c2)=C(O)C1,> 42 µM (inactive)
13,CCn1cc(C(=O)NCc2ccccn2)c(=O)c2cc(F)c(N3CCN(C)CC3)cc21,> 42 µM (inactive)
14,O=C(CN1CCc2ccccc21)NN1CC(=O)N(c2ccc(Cl)cc2)CC1=O,> 42 µM (inactive)
15,CCCn1nc(C(=O)NNC(=O)c2cc(S(=O)(=O)NC)ccc2Br)c2ccccc2c1=O,> 42 µM (inactive)
16,CC1CCCCC1N=CC1=C(O)CC(C)(C)CC1=O (stereo not given),> 42 µM (inactive)
17,COc1ccc(OCC(O)CN2C(=O)NC(C)(C)C2=O)cc1 (stereo not given),> 42 µM (inactive)
18,CCOc1ccc(C(=O)Nc2ccc(N3CCN(C)CC3)cc2)cc1[N+](=O)[O-],> 42 µM (inactive)
19,CCOC(=O)Cc1csc(NC(=O)NC2(C(F)(F)F)Oc3ccccc3O2)n1,> 42 µM (inactive)
20,CC1CCN(S(=O)(=O)c2ccc(NC(=O)c3cccs3)cc2)CC1,> 42 µM (inactive)
21,COc1ccccc1CNCc1cc(OC)c(OC)c(OC)c1,> 42 µM (inactive)
22,Cc1ccccc1P(=O)(CO)c1ccccc1C,> 42 µM (inactive)
23,CN(CC(=O)Nc1cccc(F)c1)CC(=O)Nc1cccc(S(N)(=O)=O)c1,> 110 µM (inactive)
24,Nc1ccc(Oc2ccccc2-c2ccccc2)cc1,20.8 µM
25,Cc1cc(C)c(NC(=O)Cn2c([N+](=O)[O-])cnc2C)c(C)c1,> 42 µM (inactive)

row,Structure (SMILES),AC50
1,COc1ccccc1NC(=O)NCCc1c[nH]c2ccccc12,> 42 µM (inactive)
2,CCCC(=O)N(CCN1CCOCC1)c1nc2ccc(OCC)cc2s1,> 42 µM (inactive)
3,O=c1nc(-c2ccccc2)cn[nH]1,> 42 µM (inactive)
4,CCn1cc(C(=O)N(C)c2ccc(OC)cc2OC)c2cc(OC)c(OC)cc2c1=O,> 42 µM (inactive)
5,C=CCN1C(=O)/C(=C\c2ccc(C)cc2)N=C1SCC(=O)NCCC,> 42 µM (inactive)
6,c1ccc2[nH]c(CSc3nccs3)nc2c1,> 42 µM (inactive)
7,CCN(Cc1ccccc1)Cc1ccc(OCc2ccccc2)c(OC)c1,> 42 µM (inactive)
8,COc1cccc(/C=C/C(=O)OCC(=O)Nc2ccc(Cl)cn2)c1,> 42 µM (inactive)
9,CCc1ccc2c(c1)C(c1ccc([N+](=O)[O-])cc1)=NNC(c1ccc(C)cc1)=N2,> 42 µM (inactive)
10,Cc1ccc(NC2c3ncccc3C(=O)N2C2CCCCC2)cc1C (stereo not given),32.5 µM
11,CN1C(C(=O)Nc2ccccn2)=C(O)c2sccc2S1(=O)=O,> 42 µM (inactive)
12,C=CCSC1=C(C#N)C(c2ccc(C(C)C)cc2)CC(=O)N1 (stereo not given),8.36 µM
13,C=C(Cl)COC(=O)C1C2C=CC(C2)C1C(=O)O (stereo not given),> 42 µM (inactive)
14,C/C(O)=C(\N=Nc1cc(C)ccc1O)C(N)=O,> 42 µM (inactive)
15,c1ccc(-c2cc3ccccc3cn2)cc1,35 µM
16,FC(F)(F)c1nc2ccccc2n2c(-c3ccc(Cl)cc3Cl)nnc12,> 42 µM (inactive)
17,Clc1ccc(CSc2nnc(CN3CCOCC3)n2-c2ccccc2)cc1Cl,> 42 µM (inactive)
18,Cc1ccc2c(C)c(C(=O)N(C)C(C)c3ccncn3)oc2c1C (stereo not given),> 42 µM (inactive)
19,N#Cc1c(NC(=O)c2ccc([N+](=O)[O-])o2)sc2c1CCC2,40.1 µM
20,Cc1ccc(-c2cc(C(=O)O)c3ccccc3n2)s1,> 42 µM (inactive)
21,CC1=C(C(=O)OCc2ccccc2)C(c2cccc(F)c2)NC(=O)N1 (stereo not given),> 42 µM (inactive)
22,Nc1cccc2c1C(=O)N(c1ccccc1)C2=O,> 42 µM (inactive)
23,O=C(OC1CCOC1=O)c1cccc(S(=O)(=O)Nc2ccc(F)cc2)c1 (stereo not given),> 42 µM (inactive)
24,O=C(CSc1nc2ccc(Cl)cc2[nH]1)NCc1ccco1,> 42 µM (inactive)
25,COc1ccc(C(=O)CC(=O)C(=O)Nc2ccc(C)c(C)c2)cc1,> 42 µM (inactive)

row,Structure (SMILES),AC50
1,COC(=O)c1ccccc1N(C)S(C)(=O)=O,> 42 µM (inactive)
2,CCOC(=O)Cn1c(=O)n(Cc2ccco2)c(=O)c2ccc(C(=O)NCCc3ccccc3)cc21,> 42 µM (inactive)
3,CCOc1ccc(N(CC)S(=O)(=O)c2cccc3nsnc23)cc1,> 42 µM (inactive)
4,Cc1n[nH]c(C)c1S(=O)(=O)N(CC(=O)NC1CCCC1)c1ccc(C(C)C)cc1,> 21 µM (inactive)
5,CCNC(=S)NNC(=O)c1ccc(=O)n(Cc2ccccc2)c1,> 42 µM (inactive)
6,COc1cccc(S(=O)(=O)Nc2cccc(C(=O)N3CCOCC3)c2)c1,> 42 µM (inactive)
7,O=C1C2C(c3ccccc3)CC=CC2[C@H](c2ccc3ccccc3c2)N1Cc1ccccc1 (stereo not given in full),11.3 µM
8,O=C(COC(=O)[C@@H]1CC(O)CN1S(=O)(=O)c1ccccc1[N+](=O)[O-])Nc1ccc2ccccc2c1 (stereo not given in full),> 42 µM (inactive)
9,COC(=O)c1ccc(/C=N/NC(=O)C(=O)NCC2CCCO2)cc1 (stereo not given),> 42 µM (inactive)
10,CCS(=O)(=O)c1nc(S(=O)(=O)c2ccc(Cl)cc2)c(N2CCc3ccccc3C2)s1,> 42 µM (inactive)
11,Cc1ccc(NC(=O)Cn2nc(C)c3ccccc3c2=O)cc1,> 42 µM (inactive)
12,CC(NC(=O)C12CC3CC(CC(O)(C3)C1)C2)c1ccccc1 (stereo not given),> 42 µM (inactive)
13,CC(=O)c1cccc(NC(=O)CNC(=O)c2sc3ccccc3c2Cl)c1,> 42 µM (inactive)
14,COc1cc(NC(=O)c2cc(Cl)ccc2Cl)ccc1-c1cc2ccccc2oc1=O,> 42 µM (inactive)
15,Cc1ccc(NC(=O)CN2CCN(CCN=CC3=C(O)CC(C)(C)CC3=O)CC2)cc1,> 42 µM (inactive)
16,Cc1ccc2cccc(OCc3nnc(SCC(=O)O)n3C)c2n1,> 42 µM (inactive)
17,Cc1ccc(C(=O)/C=C/c2ccc(-c3ccccc3[N+](=O)[O-])o2)cc1,> 42 µM (inactive)
18,CCN(CC)C(=O)Cn1cc(S(=O)(=O)CC(=O)NCCc2ccc(OC)c(OC)c2)c2ccccc21,> 42 µM (inactive)
19,O=C(CCCNC(=O)/C(=C/c1ccccc1F)NC(=O)c1ccccc1)OCc1ccccc1,> 42 µM (inactive)
20,COc1ccc(NC2CCCN(C(=O)CCc3scnc3C)C2)cc1 (stereo not given),> 42 µM (inactive)
21,c1ccc2cc(Cn3ccnc3)ccc2c1,> 42 µM (inactive)
22,Cc1cc(C)cc(NC(=O)C2CCCN(S(=O)(=O)c3ccc4[nH]c(=O)ccc4c3)C2)c1 (stereo not given),> 42 µM (inactive)
23,CCC1CCCCN1C(=O)CSc1nc2c([nH]c3ccccc32)c(=O)n1C (stereo not given),> 42 µM (inactive)
24,CCc1noc(C)c1C(=O)Nc1nc(-c2ccc(F)cc2)c(C)s1,> 42 µM (inactive)
25,CCNCc1nc2cc(Cl)ccc2c(=O)[nH]1,> 42 µM (inactive)

row,Structure (SMILES),AC50
1,CC1(OC(=O)CCc2ccccc2)C(=O)C=C2C=C(c3ccc(C#N)cc3)N(C3CCCC3)C=C2C1=O (stereo not given),> 42 µM (inactive)
2,O=C(N=C1SC2CS(=O)(=O)CC2N1c1ccc(F)c(Cl)c1)C1CC1 (stereo not given),> 42 µM (inactive)
3,Cc1ccc(-n2c(-c3ccco3)nc3c(cnn3-c3ccc(C)cc3)c2=O)cc1,> 42 µM (inactive)
4,COc1cccc(C(=O)N2CCN(S(=O)(=O)Cc3ccccc3)CC2)c1OC,> 42 µM (inactive)
5,Cc1cc(CNC(=O)C2CCC(=O)N(Cc3ccccc3F)C2)on1 (stereo not given),> 42 µM (inactive)
6,COCCNCc1ccccc1,> 42 µM (inactive)
7,CCC(Cc1ccccc1)NC(=O)C1CCN(c2nn3c(=O)cc(C)nc3s2)CC1 (stereo not given),> 42 µM (inactive)
8,COc1ccc(N(C(=O)c2ccco2)C(C(=O)NC2CCCCC2)c2ccccc2)cc1 (stereo not given),> 42 µM (inactive)
9,COC(=O)CSc1ccc(S(=O)(=O)N2CCCCCC2)cc1[N+](=O)[O-],> 42 µM (inactive)
10,COc1ccc(C(=O)N(CCc2ccccc2)Cc2ccccc2)c(OC)n1,> 42 µM (inactive)
11,O=C(CC1(CC2=NS(=O)(=O)c3ccccc3N2)CCCC1)NCCc1ccccc1,> 42 µM (inactive)
12,Cc1ccc(C(=O)/C=C/Nc2ccccc2C(N)=O)cc1,> 42 µM (inactive)
13,COC(=O)c1ccccc1SC(CC(=O)c1ccccc1)c1ccc(F)cc1 (stereo not given),> 42 µM (inactive)
14,O=C1CC(c2cccc(Br)c2)C2=C(COC2=O)N1 (stereo not given),> 42 µM (inactive)
15,COC(=O)c1ccc(SCC(=O)N2CCC(C)CC2)c([N+](=O)[O-])c1,> 42 µM (inactive)
16,CN1C(=O)c2ccc(NC(=S)NC(=O)C(C)(C)C)cc2C1=O,> 42 µM (inactive)
17,O=C(O)C1CCCN1C(=O)c1cncc(Br)c1 (stereo not given),> 42 µM (inactive)
18,C[C@@]12C(=O)Nc3ccc(F)cc3C(=O)N1[C@H]1c3cc(Cl)ccc3OC[C@@H]1[C@@H]2c1ccccc1,1.97 µM
19,CCCn1c(SC(C)C(=O)NCC2CCCO2)nc2sc(CC)cc2c1=O (stereo not given),> 42 µM (inactive)
20,Cc1nc(N/N=C\c2ccc3c(c2)OCO3)sc1C,33.5 µM
21,CN(C)c1ccc(NC(=O)CSc2nc(N)c(C(=O)Nc3ccc(N(C)C)cc3)s2)cc1,> 42 µM (inactive)
22,COc1cc2cc(C)c3nnc(SCC(=O)Nc4cc(C)on4)n3c2cc1OC,> 42 µM (inactive)
23,CSCCC(NC(=O)c1ccco1)C(=O)N1CCN(Cc2ccccc2)CC1 (stereo not given),> 42 µM (inactive)
24,CCOc1ccc(Br)cc1CNCCN1CCOCC1,> 42 µM (inactive)
25,Cc1cc(/C=N/NC(=O)c2ccsc2)c(C)n1-c1cnccn1,> 42 µM (inactive)
